# Test results from US20030185792A1, “Morphogen analogs of bone morphogenic proteins” (Curis, Inc., priority 1996, published 2003).
# “Also recorded” adds a separate entry of the source.
# B1: OP-1: osteogenic protein-1, a tissue morphogenic protein of the TGF-β superfamily; mature human OP-1 is SEQ ID No. 4 (protein, listed as Homo sapiens)
# chain: CKKHELYVSFRDLGWQDWIIAPEGYAAYYCEGECAFPLNSYMNATNHAIVQTLVHFINPETVPKPCCAPTQLNAISVLYFDDSSNVILKKYRNMVVRACGCH
# Columns and labels:
# ROS cells = experiment: ROS cell based alkaline phosphatase bioassay; design: species or system rat; conditions: for % increase in OP-1 response relative to the absence of peptide: OP-1 1.33 nM
# Procedure: In a first series of experiments, increasing concentrations of peptides F2-2 (FIG. 9A), F2-3 (FIG. 9B), Hn-2 (FIG. 9C) and Hc-2 (FIG. 9D) were added to ROS cells either alone (open bars) or in combination with 40 ng/ml soluble OP-1 (filled bars) and their effect on alkaline phosphatase activity measured. Soluble OP-1 is the form of OP-1 in which the pro-domain is still attached to the mature portion of OP-1 (see WO 94/03600). A basal alkaline phosphatase activity is shown by the line and represents the alkaline phosphatase activity of cells incubated in the absence of both soluble OP-1 and peptide.
# (§1) Assay of peptides: The receptor-binding activities of OP-1 synthetic peptides were determined by a radio-ligand receptor assay using ^125I-labeled OP-1 as ligand, and an OP-1 receptor-enriched plasma membrane fraction of ROS cells. The assay is based on competition between radiolabeled OP-1 and unlabeled OP-1 or peptide for binding to membrane-bound receptor. A well characterized ROS cell based in vitro bio-assay was used to examine the effects of OP-1 peptides on basal as well as OP-1 induced cellular alkaline phosphatase activity.
# i. ROS Cell Based Alkaline Phosphatase Assay: OP-1 synthetic peptides that bind OP-1 receptors are further analyzed by in vitro bioassay. This allows defining the role of OP-1 peptides at the receptor-binding site. Some of the OP-1 peptides that effectively interact with receptors could inhibit OP-1 induced target cell responsiveness, thereby acting as functional antagonists. Alternatively, they may mimic OP-1 functions inducing alkaline phosphatase activity in ROS cells. Creative BioMolecules has developed and fully validated ROS cell in vitro assay for OP-1. An assay procedure as described earlier is essentially followed to determine the biological activities of OP-1 peptides. In a typical experiment, rat Osteosarcoma (17/2.8) cells are plated in 96 well plates (3.0×10^4 cells/well) and incubated overnight at 37° C. in 5-6% CO2 incubator. Next day, the plates are examined to make sure that cells are healthy & confluent. Cells are treated with increasing concentrations of OP-1 standard (1-10,000 ng/ml) or OP-1 synthetic peptides (0.02-200 μM) alone or with OP-1 standard prepared in medium containing 1% FBS and incubated for 2 days at 37° C. in 5-6% CO2 incubator. The cellular content of alkaline phosphatase activity is determined by the method of Reddi and Huggins. Enzyme estimations are routinely carried out in 96 well plates. Following removal of culture medium, cells are washed with pre-warmed PBS (150 μl) and further incubated in 100 ul of pre-warmed 1% Triton X-100 for 30 minutes at 37 C. Plates are centrifuged for 10 minutes at full speed, and recovered samples (each 15 μl) are assayed for enzyme activity by adding 90 ul p-nitrophenyl phosphate (Sigma) as a substrate in 0.05 M glycine-NaOH buffer, pH 9.3 and incubating for 20 minutes at 37° C. The reaction is stopped by adding 75 μl of 0.2 N NaOH/well and absorbance at 405/490 nm is measured on a Dynatech MR 700 plate reader. Results are expressed as concentration of peptide inhibitor (with antagonist activity) required to give 50% inhibition of maximum response to OP-1 standard. On the other hand, the activities of peptides that stimulate cell responsiveness (with agonist activity) are expressed relative to OP-1 standard. FIG. 23 illustrates the dose-related effects of OP-1 preparations on stimulation of alkaline phosphatase activity as determined in ROS cell based in vitro assay.
# [1] = test system: OP-1 receptor-enriched plasma membrane fraction of ROS cells; experiment: Radioligand receptor assay: displacement of 125I-labeled OP-1 from ROS cell plasma membranes; format: binding, rat
# Procedure: In a second series of experiments, the ability of unlabeled soluble OP-1 and unlabeled peptides F1-2, F2-2, F2-3, H-n2 and H-c2 to displace ^125I labeled soluble OP-1 from ROS cell membranes was measured. The activities of peptides F2-2 and F2-3 relative to soluble OP-1 are shown in FIG. 10A, and the activities of peptides Fi-2, H-n2 and H-c2 relative to soluble OP-1 are shown in FIG. 10B. OP-1 receptor-enriched plasma membranes of ROS cells were incubated for 20 hrs at 4° C. with ^125I-labeled soluble OP-1 and unlabeled peptide. Receptor bound material was separated from unbound material by centrifugation at 39,500×g. The resulting pellet was harvested and washed with 50 mM HEPES buffer, pH 7.4 containing 5 mM MgCl2 and 1 mM CaCl2 Radioactivity remaining in the pellet was determined by means of a gamma counter.
# as §1
# i. Radio-receptor Assay: The receptor-binding activities of various OP-1 synthetic peptides can be determined by an equilibrium displacement binding isotherm assay using ^125I-labeled OP-1 as ligand and OP-1 receptor-enriched plasma membrane fraction of ROS cells. Highly purified OP-1 can be radioiodinated to a specific activity of 70-78 μCi/ug by a modified procedure of lactoperoxidase method. The percent bindability of radioiodinated OP-1 to excess receptor is 30-37%. Plasma membranes enriched with OP-1 receptors from ROS cells can be isolated as is known in the art. […] In a typical assay, fixed amounts of ^125I-labeled sol. OP-1 (˜80,000 cpm) are incubated with fixed amount of receptor-enriched plasma membrane fraction in the presence (5 μg, for non-specific binding) or absence of excess unlabeled OP-1 (for total binding). Displacement curves are generated with increasing concentrations of OP-1 peptide (0.032-50 μM) or OP-1 standard preparation (5-2000 ng). The assay incubations are carried out in a reaction volume of 300 μl with shaking for 22 hrs. at 4° C. Separation of bound and free ^125I-labeled OP-1 is by centrifugation (39,500×g, 30 minutes). The supernatants are aspirated and pellets are washed before counting in a gamma counter (Packard Instr., Downers Grove, Ill.). The concentration of OP-1 peptide required to give 50% inhibition of total specific binding of ^125I-labeled OP-1 (ED50) is calculated from competitive data.
Molecule,"behaviour in the alkaline phosphatase assay (agonist/antagonist) (ROS cells; Example 2, alone or with 40 ng/ml soluble OP-1)","effect on basal cell responsiveness (alkaline phosphatase activity) (ROS cells; Example 3, peptide alone, no OP-1)","effect on OP-1 induced cell responsiveness (agonist/antagonist behaviour) (ROS cells; Example 3, peptide together with OP-1)","peptide concentrations at which OP-1 induced responsiveness is potentiated (ROS cells; Example 3, with OP-1) [µM]","overall judgement of activity (lead peptides) (ROS cells; Example 3 summary, antagonistic (H-C2) and modulating (F2-3) activity)","% increase in OP-1 response relative to the absence of peptide (ROS cells; peptide 0.01 (unit printed ELM), FIG. 19) [%]","% increase in OP-1 response relative to the absence of peptide (ROS cells; peptide 0.1 (unit printed ELM), FIG. 19) [%]","% increase in OP-1 response relative to the absence of peptide (ROS cells; peptide 1 ELM (so in the source), FIG. 19) [%]","increase of alkaline phosphatase activity relative to soluble OP-1 alone (ROS cells; peptide about 0.01 μM with 40 ng/ml soluble OP-1, FIG. 9B)","effect on basal alkaline phosphatase level (ROS cells; peptide alone, about 0.01 μM, Example 2, FIG. 9B)","ability to displace 125I-labeled soluble OP-1 from ROS cell membranes ([1]; Example 2, FIGS. 10A and 10B)",effect on binding of 125I-labeled OP-1 to the receptor ([1]; Example 3),"level of OP-1 response in the absence of peptide (ROS cells; FIG. 19, sub-maximal OP-1 (1.33 nM))",affinity (Ka) of OP-1 binding sites ([1]; single class of binding sites in ROS cell plasma membrane preparations) [M⁻¹]
"F2-3: SEQ ID No. 19; 16 residues, finger 2 tip 11-residue loop with 5-residue C-terminal extension (CYFDDSSNVICKKYRS; listed as Homo sapiens)",weak OP-1 agonists,no significant effect,agonistic manner; also recorded: potentiating the cell responsiveness to OP-1,0.01 to 1,highly active,53,54,48,about 20%,increase the basal alkaline phosphatase level,able to completely displace,effectively competed,,
B1,,,,,,,,,,,,,approximately 60 % of maximum,4.38e+09
